Data set [1] in a line: week-long toxicology study in mice. The data set is classed as in vivo. On the procedure: For PK studies of Pz-1 in animals, a solution formulation for oral administration was created in 500 μL of polysorbate 80, 500 μL of EtOH, and 1.0 mL of pH 2 buffer. For the toxicity studies, a suspension formulation was developed in tween 20 (20%) and xanthan gum (0.125%).
Similarly, the toxicity markers including phosphorus, creatinine, total bilirubin, GGT, ALP, glucose, total protein, albumin, globulin, calcium, cholesterol, and BUN were not impacted at any dose. […] At the highest dose, the concentration of ALT was slightly above the normal ALT level of 80 U/L, but below the toxicity threshold of 200 U/L. ALT levels can easily be monitored and can serve as a reversible toxicity marker in the clinical setting.

The next data set addresses CYP2D6 (Homo sapiens, UniProt P10635). Kind of data set: CYP inhibition. The data set is classed as in vitro ADME. The settings on record: read-out: CYP 2D6 IC50.
The next data set concerns the target T1, VEGFR2 (Mus musculus, UniProt P35918).
T1 construct: from tissue; host or cells: subcutaneous tumours (NIH3T3 RET/C634Y or NIH3T3 HRAS/G12V) in BALB/c nu/nu mice
Kind of data set: In vivo target inhibition, pVEGFR2 in RET/C634Y-induced tumors. Also noted: species or system nude mice. The following applies: 48 hr, 1.0 or 3.0 mg/kg daily. On the procedure: FIG. 9: Photographs of blots showing effects of Pz-1 on cellular phosphorylation events in tumors induced in nude mice (from FIG. 8) by injection of NIH3T3 fibroblasts transformed by RET/C634Y or HRAS/G12V. […] Some of the vehicle-treated tumors, at the end of the tumor growth experiment described in FIG. 8, were treated for 48 hr with different doses of Pz-1 (TR) or left untreated (NT). At the end of the treatment, 50 μg of tumor protein lysates were subjected to immunoblotting with anti-phospho-Y1062 (αp1062) and anti-phospho-905 (αpY905) RET antibodies, anti-phospho-MAPK (αpMAPK, T302/Y304), anti-phospho-SHC (αpSHC, Y317), anti-phospho-p70S6K (αpp70S6K, T389), anti-phospho-S6RP (αpS6RP, S235/S236), and anti-phospho-VEGFR2 (αpVEGFR2 pY1175) antibodies. The blots were normalized using anti-RET (αRET), anti-SHC (αSHC), anti-MAPK (αMAPK), anti-p70S6K (αp70S6K), anti-S6RP (αS6RP) or anti-VEGFR2 (αVEGFR2) antibodies.
Some of the vehicle-treated tumors, at the end of the tumor growth experiment reported in FIG. 8, were treated for 48 hr with different doses of Pz-1 (1.0 or 3.0 mg/kg daily) or left untreated. […]

The next data set relates to parental Ba/F3 cells. Kind of data set: Proliferation of parental Ba/F3 cells. It is filed as cell-based, murine. The settings on record: parental Ba/F3, with IL-3. The method, then:
FIG. 6: Activity of Pz-1 on NCOA4-RET oncogene-driven IL-3-independent proliferation of murine Ba/F3 cells. […] Ba/F3 and Ba/F3 NCOA4-RET cells were incubated with vehicle (NT) or the indicated concentration of Pz-1 in complete medium and counted at different time points. Data are the mean±SD of one experiment performed in triplicate. Murine interleukin-3 (IL-3) dependent pro-B Ba/F3 cells were from ATCC. Ba/F3 cells stably expressing NCOA4-RET (RET/PTC3) protein were generated by transfecting long isoform (RET-51) of NCOA4-RET by electroporation. Parental and Ba/F3-NCOA4-RET cells were cultured in RPMI 1640 with 10% FBS; parental cells required also 10 ng/ml IL-3. IC50 doses (with Confidence Intervals) are indicated.
Nthy-ory-3-1 and TTcells were seeded in 60-mm dishes. Cells were kept in 2% (Nthy-ori-3-1) or 10% (TT) fetal calf serum. One day after plating, different concentrations of Pz-1 or vehicle were added to the medium and changed every 2-3 days. Cells were counted every 2-3 days. […] Parental and RET/PTC-expressing Ba/F3 were kept in 10% fetal calf serum in 6-multi wells and counted every day for 4 consecutive days, changing media every 2 days. […] IC50 doses were calculated through a curve fitting analysis from the last day of growth curves using the PRISM software program (Graphpad Software Inc). […]

Chain of CYP2D6 (P10635 whole entry): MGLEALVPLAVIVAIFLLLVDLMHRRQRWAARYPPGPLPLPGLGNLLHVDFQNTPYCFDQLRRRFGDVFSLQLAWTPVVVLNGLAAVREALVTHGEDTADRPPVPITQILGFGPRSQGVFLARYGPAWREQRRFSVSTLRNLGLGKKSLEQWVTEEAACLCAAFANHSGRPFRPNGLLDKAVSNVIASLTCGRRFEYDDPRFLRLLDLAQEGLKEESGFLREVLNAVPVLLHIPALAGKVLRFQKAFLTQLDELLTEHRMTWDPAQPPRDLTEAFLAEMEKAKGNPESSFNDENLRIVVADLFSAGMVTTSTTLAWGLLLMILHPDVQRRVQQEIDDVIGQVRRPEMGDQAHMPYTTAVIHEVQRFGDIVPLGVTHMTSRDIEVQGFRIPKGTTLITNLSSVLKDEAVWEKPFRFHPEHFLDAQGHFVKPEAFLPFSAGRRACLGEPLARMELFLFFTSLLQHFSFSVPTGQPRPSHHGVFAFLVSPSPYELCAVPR
T1 sequence (P35918 20-1345): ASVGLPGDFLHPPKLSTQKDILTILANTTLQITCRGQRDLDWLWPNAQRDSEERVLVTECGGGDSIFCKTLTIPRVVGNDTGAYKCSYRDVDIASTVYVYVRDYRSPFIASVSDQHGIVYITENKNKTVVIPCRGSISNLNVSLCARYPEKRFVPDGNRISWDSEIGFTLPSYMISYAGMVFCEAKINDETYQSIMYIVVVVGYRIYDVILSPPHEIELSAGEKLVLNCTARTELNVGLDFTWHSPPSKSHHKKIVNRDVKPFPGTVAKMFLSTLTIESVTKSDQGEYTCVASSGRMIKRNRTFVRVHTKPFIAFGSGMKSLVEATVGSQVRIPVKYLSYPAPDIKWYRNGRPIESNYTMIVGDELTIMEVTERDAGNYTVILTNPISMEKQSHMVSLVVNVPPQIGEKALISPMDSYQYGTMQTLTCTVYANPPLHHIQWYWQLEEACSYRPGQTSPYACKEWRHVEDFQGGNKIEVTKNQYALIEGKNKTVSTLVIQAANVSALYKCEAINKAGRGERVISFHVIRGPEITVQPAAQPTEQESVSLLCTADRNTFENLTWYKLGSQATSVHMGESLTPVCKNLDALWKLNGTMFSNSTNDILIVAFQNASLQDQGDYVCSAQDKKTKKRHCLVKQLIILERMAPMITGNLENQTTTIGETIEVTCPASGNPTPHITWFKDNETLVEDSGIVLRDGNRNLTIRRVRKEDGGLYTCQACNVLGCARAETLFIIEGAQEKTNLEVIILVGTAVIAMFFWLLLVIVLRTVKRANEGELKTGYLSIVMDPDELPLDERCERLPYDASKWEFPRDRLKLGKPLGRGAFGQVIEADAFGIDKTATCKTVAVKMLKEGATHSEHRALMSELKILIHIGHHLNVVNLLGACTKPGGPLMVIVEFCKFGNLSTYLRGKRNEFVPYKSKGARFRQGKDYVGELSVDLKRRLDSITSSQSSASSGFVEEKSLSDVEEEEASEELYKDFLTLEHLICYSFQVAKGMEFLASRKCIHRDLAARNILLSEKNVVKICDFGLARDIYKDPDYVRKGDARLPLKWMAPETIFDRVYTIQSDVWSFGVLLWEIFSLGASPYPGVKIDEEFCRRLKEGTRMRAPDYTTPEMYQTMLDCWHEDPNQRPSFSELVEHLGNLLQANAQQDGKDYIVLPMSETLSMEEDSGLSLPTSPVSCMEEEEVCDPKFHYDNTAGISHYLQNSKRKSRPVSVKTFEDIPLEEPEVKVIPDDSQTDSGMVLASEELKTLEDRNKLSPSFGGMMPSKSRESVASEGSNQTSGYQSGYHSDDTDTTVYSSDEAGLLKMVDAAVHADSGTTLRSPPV

The IC50 is the concentration needed to halve the response being measured. As for `Cn1cc(-c2ccc3c(c2)ncn3-c2ccc(CC(=O)Nc3cc(C(C)(C)C)on3)cc2)cn1` [Pz-1, N-(5-(tert-butyl)isoxazol-3-yl)-2-(4-(5-(1-methyl-1H-pyrazol-4-yl)-1H-benzo[d]imidazol-1-yl)phenyl)acetamide], the ALT in blood in data set [1] (10 mg/kg) is listed as 22 U/L; in data set [1] (30 mg/kg), 51 U/L; in data set [1] (100 mg/kg) it was 96 U/L. Besides, the “toxicity markers (phosphorus, creatinine, total bilirubin, GGT, ALP, glucose, total protein, albumin, globulin, calcium, cholesterol, BUN)” value in data set [1] (any dose) is “not impacted”. Moreover, the “organ pathological analysis in heart, kidney, and liver” value in data set [1] (even at 100 mg/kg) was “did not show adverse effects”. For the same compound, the toxicity entry in data set [1] (one week, daily dose escalation from 10 mg/kg to 100 mg/kg, suspension formulation) is listed as “no significant toxicity”. For the same compound, the IC50 at CYP2D6 stood at 13.8 µM. Also, the pVEGFR2 in tumors result on VEGFR2 is “inhibited”. For the same compound, the inhibition of proliferation entry in the data set with parental Ba/F3 cells is “inhibition of proliferation by Pz-1 for Ba/F3-NCOA4-RET but not parental Ba/F3”.

Source of the values: patent publication US9988371B2, “Benzimidazole analogues and related methods” (The Arizona Board of Regents, on Behalf of the University …, priority 2014, dated 2018).
